Laboratory results published in publication PMC5733478, “A Non-imaging High Throughput Approach to Chemical Library Screening at the Unmodified Adenosine-A3 Receptor in Living Cells” (Frontiers in Pharmacology, 2017).
Counter-ions that a name gives are not always drawn.

What follows are molecules tested against T1, human A3AR (Homo sapiens, UniProt P0DMS8) (assay: LOPAC library primary screen: single concentration (10 μM) inhibition of 25 nM CA200645 binding, PHERAstar FS). Settings: not given.
T1 construct: expressed in transfected cells
T1 sequence (P0DMS8 1-318): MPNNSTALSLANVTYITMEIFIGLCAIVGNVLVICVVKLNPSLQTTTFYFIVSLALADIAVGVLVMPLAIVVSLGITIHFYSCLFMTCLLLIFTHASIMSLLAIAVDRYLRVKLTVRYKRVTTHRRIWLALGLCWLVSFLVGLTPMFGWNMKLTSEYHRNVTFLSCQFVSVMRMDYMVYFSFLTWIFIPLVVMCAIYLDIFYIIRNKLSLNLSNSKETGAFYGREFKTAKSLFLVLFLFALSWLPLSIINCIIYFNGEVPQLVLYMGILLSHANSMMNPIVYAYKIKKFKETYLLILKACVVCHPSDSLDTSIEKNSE
In the case of `CCCNC(C)C(=O)Nc1ccccc1C` (stereo not drawn) [Prilocaine hydrochloride], the “% 25 nM CA200645 binding” value is reported as 106.9 ± 9.7%.
With `CCC1(c2ccccc2)C(=O)NCNC1=O` [Primidone] the “% 25 nM CA200645 binding” value was 96.1 ± 4.9%.
With `CCN(CC)CCNC(=O)c1ccc(N)cc1` [Procainamide hydrochloride] the “% 25 nM CA200645 binding” value was 89.6 ± 33.7%.
With `CN1CCN(CCCN2c3ccccc3Sc3ccc(Cl)cc32)CC1` [Prochlorperazine dimaleate] the “% 25 nM CA200645 binding” value was 90.4 ± 18.3%.
In the case of `CCCN(CCC)C(=O)C(CCC(=O)O)NC(=O)c1ccccc1` (stereo not drawn) [Proglumide], the “% 25 nM CA200645 binding” value is reported as 107.1 ± 0.6%.
`CN(C)CCCN1c2ccccc2Sc2ccccc21` [Promazine hydrochloride] was tested, and the “% 25 nM CA200645 binding” value was 80.6 ± 8.4%.
With `CC(CN1c2ccccc2Sc2ccccc21)N(C)C` (stereo not drawn) [Promethazine hydrochloride] the “% 25 nM CA200645 binding” value was 96.7 ± 11.4%.
With `CCCNCC(O)COc1ccccc1C(=O)CCc1ccccc1` (stereo not drawn) [Propafenone hydrochloride] the “% 25 nM CA200645 binding” value was 111.3 ± 10.1%.
In the case of `CC(C)[N+](C)(CCOC(=O)C1c2ccccc2Oc2ccccc21)C(C)C` [Propantheline bromide], the “% 25 nM CA200645 binding” value is reported as 95.5 ± 4.8%.
With `CC(C)c1cccc(C(C)C)c1O` [Propofol] the “% 25 nM CA200645 binding” value was 96.0 ± 3.0%.
`CNCCCC1c2ccccc2C=Cc2ccccc21` [Protriptyline hydrochloride] was tested, and the “% 25 nM CA200645 binding” value was 101.6 ± 7.3%.
With `O=c1ccc2c(OCCCCc3ccccc3)c3ccoc3cc2o1` [Psora-4] the “% 25 nM CA200645 binding” value was 66.4 ± 9.2%.
`NCCCCN` [Putrescine dihydrochloride] was tested, and the “% 25 nM CA200645 binding” value was 106.2 ± 11.7%.
For `NC(=O)c1cnccn1` [Pyrazinecarboxamide], the “% 25 nM CA200645 binding” value was 88.9 ± 26.1%.
`CN(C)C(=O)Oc1ccc[n+](C)c1` [Pyridostigmine bromide] was tested, and the “% 25 nM CA200645 binding” value was 92.0 ± 6.7%.
With `COc1ccc(CN(CCN(C)C)c2ccccn2)cc1` [Pyrilamine maleate] the “% 25 nM CA200645 binding” value was 84.6 ± 34.1%.
With `Oc1ccccc1O` [Pyrocatechol] the “% 25 nM CA200645 binding” value was 91.0 ± 7.4%.
With `CCN(CC)CCCC(C)Nc1c2ccc(Cl)cc2nc2ccc(OC)cc12` (stereo not drawn) [Quinacrine dihydrochloride] the “% 25 nM CA200645 binding” value was 98.2 ± 4.9%.
With `CCCN1CCC[C@@H]2Cc3nc(N)ncc3C[C@H]21.Cl.Cl` [Quinelorane dihydrochloride] the “% 25 nM CA200645 binding” value was 105.7 ± 9.9%.
For `C=C[C@H]1C[N@@]2CC[C@H]1C[C@@H]2[C@@H](O)c1ccnc2ccc(OC)cc12` [Quinidine sulfate], the “% 25 nM CA200645 binding” value was 111.6 ± 16.6%.
In the case of `O=C(O)/C=C\C(=O)O.O=[N+]([O-])c1ccc2nc(N3CCNCC3)ccc2c1` [Quipazine, 6-nitro-, maleate], the “% 25 nM CA200645 binding” value is reported as 100.0 ± 4.7%.
For `CCCN1CCC[C@H](c2cccc(O)c2)C1.Cl` [R(+)-3PPP hydrochloride], the “% 25 nM CA200645 binding” value was 88.4 ± 12.1%.
In the case of `Br.C=CCN1CCc2c(cc(O)c(O)c2Br)[C@@H](c2ccccc2)C1` [R(+)-6-Bromo-APB hydrobromide], the “% 25 nM CA200645 binding” value is reported as 77.8 ± 20.1%.
In the case of `C[C@@]1(C2CCCC2)Cc2cc(OCC(=O)O)c(Cl)c(Cl)c2C1=O` [R(+)-IAA-94], the “% 25 nM CA200645 binding” value is reported as 95.5 ± 13.0%.
For `CN1CCc2cc(Cl)c(O)cc2[C@@H](c2ccccc2)C1.Cl` [R(+)-SCH-23390 hydrochloride], the “% 25 nM CA200645 binding” value was 96.2 ± 12.3%.
`COc1ccc2c(c1O)-c1cccc3c1[C@@H](C2)N(C)CC3.Cl` [R(-)-Apocodeine hydrochloride] was tested, and the “% 25 nM CA200645 binding” value was 70.5 ± 34.0%.
In the case of `C[C@H](Cc1ccccc1)Nc1ncnc2c1ncn2[C@@H]1O[C@H](CO)[C@@H](O)[C@H]1O` [R(-)-N6-(2-Phenylisopropyl)adenosine], the “% 25 nM CA200645 binding” value is reported as 69.2 ± 26.4%.
For `CCCN1CCc2cccc3c2[C@H]1Cc1ccc(O)c(O)c1-3.Cl` [R(-)-Propylnorapomorphine hydrochloride], the “% 25 nM CA200645 binding” value was 96.1 ± 7.1%.
`Br.CCCN(CCC)[C@@H]1CCc2ccc(O)cc2C1` [R-(+)-7-Hydroxy-DPAT hydrobromide] was tested, and the “% 25 nM CA200645 binding” value was 110.9 ± 7.0%.
With `Br.CCCN(CCC)[C@@H]1CCc2cccc(O)c2C1` [R-(+)-8-Hydroxy-DPAT hydrobromide] the “% 25 nM CA200645 binding” value was 83.0 ± 17.5%.
With `C#CCN[C@H](C)Cc1ccccc1.Cl` [R-(-)-Desmethyldeprenyl hydrochloride] the “% 25 nM CA200645 binding” value was 101.0 ± 11.7%.
In the case of `C[C@H](Cc1ccccc1)Nc1ncnc2c1ncn2[C@@H]1O[C@H](CO)[C@@H](O)[C@H]1O` [R-PIA, reference compound], the “hit in LOPAC primary screen (inhibited the binding of CA200645 by >40%)” value is reported as “not identified as hits”.
`COC1(C2=NCCN2)COc2ccccc2O1.Cl` (stereo not drawn) [RX 821002 hydrochloride] was tested, and the “% 25 nM CA200645 binding” value was 101.0 ± 17.5%.
With `O=C(c1ccc(OCCN2CCCCC2)cc1)c1c(-c2ccc(O)cc2)sc2cc(O)ccc12` [Raloxifene hydrochloride] the “% 25 nM CA200645 binding” value was 90.8 ± 14.0%.
For `COc1ccccc1OCC(O)CN1CCN(CC(=O)Nc2c(C)cccc2C)CC1` (stereo not drawn) [Ranolazine dihydrochloride], the “% 25 nM CA200645 binding” value was 102.3 ± 13.7%.
For `COC(=O)[C@H]1[C@H]2C[C@H]3c4[nH]c5ccccc5c4CCN3C[C@H]2CC[C@@H]1O` [Rauwolscine hydrochloride], the “% 25 nM CA200645 binding” value was 96.5 ± 8.7%.
For `Nc1c(S(=O)(=O)O)cc(Nc2ccc(Nc3nc(Cl)nc(Nc4cccc(S(=O)(=O)O)c4)n3)c(S(=O)(=O)O)c2)c2c1C(=O)c1ccccc1C2=O` [Reactive Blue 2], the “% 25 nM CA200645 binding” value was 24.5 ± 2.7%.
`Cc1cccc(-c2[nH]ncc2-c2ccc3ncccc3n2)n1` [RepSox] was tested, and the “% 25 nM CA200645 binding” value was 98.5 ± 5.4%.
For `COC(=O)[C@H]1[C@H]2C[C@@H]3c4[nH]c5cc(OC)ccc5c4CCN3C[C@H]2C[C@@H](OC(=O)c2cc(OC)c(OC)c(OC)c2)[C@@H]1OC` [Reserpine], the “% 25 nM CA200645 binding” value was 83.8 ± 14.9%.
With `CC1=C(/C=C/C(C)=C/C=C/C(C)=C/C(=O)O)C(C)(C)CCC1` [Retinoic acid] the “% 25 nM CA200645 binding” value was 93.6 ± 14.4%.
For `NC(=O)c1ncn([C@@H]2O[C@H](CO)[C@@H](O)[C@H]2O)n1` [Ribavirin], the “% 25 nM CA200645 binding” value was 103.3 ± 14.0%.
With `C1COC(NC(C2CC2)C2CC2)=N1` [Rilmenidine hemifumarate] the “% 25 nM CA200645 binding” value was 100.9 ± 6.4%.
`CC(NCCc1ccc(O)cc1)C(O)c1ccc(O)cc1` (stereo not drawn) [Ritodrine hydrochloride] was tested, and the “% 25 nM CA200645 binding” value was 99.4 ± 8.5%.
In the case of `CNc1cc(NS(=O)(=O)c2ccc(N)cc2)nc(NC)n1.Cl.Cl` [Ro 04-6790 dihydrochloride], the “% 25 nM CA200645 binding” value is reported as 82.1 ± 15.5%.
With `CCCN(CCC)CCc1cccc2c1CC(=O)N2` [Ropinirole hydrochloride] the “% 25 nM CA200645 binding” value was 107.5 ± 15.4%.
In the case of `CC[C@H](CO)Nc1nc(NCc2ccccc2)c2ncn(C(C)C)c2n1` [Roscovitine], the “% 25 nM CA200645 binding” value is reported as 45.3 ± 8.6%.
In the case of `C=C(C)[C@H]1Cc2c(ccc3c2O[C@@H]2COc4cc(OC)c(OC)cc4[C@@H]2C3=O)O1` [Rotenone], the “% 25 nM CA200645 binding” value is reported as 92.4 ± 12.1%.
`NC(=O)c1cn(Cc2c(F)cccc2F)nn1` [Rufinamide] was tested, and the “% 25 nM CA200645 binding” value was 100.9 ± 12.8%.
`O=c1c2ccccc2nc2n1CCc1c-2[nH]c2ccccc12` [Rutaecarpine] was tested, and the “% 25 nM CA200645 binding” value was 34.3 ± 2.1%.
For `N.N.N.N.N.N.N.N.N.N.N.N.N.N.[Cl-].[Cl-].[Cl-].[Cl-].[Cl-].[Cl-].[O-2].[O-2].[Ru+3].[Ru+3].[Ru+4]` [Ruthenium red], the “% 25 nM CA200645 binding” value was 95.4 ± 2.3%.
In the case of `c1ccc2c(c1)CC(N1CCN(c3cccc4c3OCCO4)CC1)C2` [S15535], the “% 25 nM CA200645 binding” value is reported as 97.0 ± 1.3%.
For `CC(C)Cc1ccc([C@H](C)C(=O)O)cc1` [S(+)-Ibuprofen], the “% 25 nM CA200645 binding” value was 107.7 ± 17.0%.
`CC(C)NC[C@@H](O)c1ccc(O)c(O)c1.O=C(O)C(O)C(O)C(=O)O` [S(+)-Isoproterenol (+)-bitartrate] was tested, and the “% 25 nM CA200645 binding” value was 101.2 ± 2.4%.
`CC(C)NCC(O)COc1cccc2[nH]ccc12` (stereo not drawn) [S(-)-Pindolol] was tested, and the “% 25 nM CA200645 binding” value was 98.0 ± 8.4%.
In the case of `CC(C)(C)NC[C@H](O)COc1nsnc1N1CCOCC1.O=C(O)/C=C\C(=O)O` [S(-)-Timolol maleate], the “% 25 nM CA200645 binding” value is reported as 103.3 ± 4.5%.
With `Brc1ccc([C@H]2CN3CCSC3=N2)cc1.O=C(O)C(=O)O` [S(-)-p-Bromotetramisole oxalate] the “% 25 nM CA200645 binding” value was 68.6 ± 44.8%.
For `Nc1nc(SCc2ccc([N+](=O)[O-])cc2)c2ncn([C@@H]3O[C@H](CO)[C@@H](O)[C@H]3O)c2n1` [S-(4-Nitrobenzyl)-6-thioguanosine], the “% 25 nM CA200645 binding” value was 91.9 ± 3.2%.
For `O=[N+]([O-])c1ccc(CSc2ncnc3c2ncn3[C@@H]2O[C@H](CO)[C@@H](O)[C@H]2O)cc1` [S-(4-Nitrobenzyl)-6-thioinosine], the “% 25 nM CA200645 binding” value was 95.1 ± 33.3%.
In the case of `CNCC[C@H](Oc1ccc(C(F)(F)F)cc1)c1ccccc1.Cl` [S-(+)-Fluoxetine hydrochloride], the “% 25 nM CA200645 binding” value is reported as 102.0 ± 9.9%.
In the case of `C[C@@](Cc1ccc(O)c(O)c1)(NN)C(=O)O` [S-(-)-Carbidopa], the “% 25 nM CA200645 binding” value is reported as 101.3 ± 7.8%.

Same assay, conditions: % of control wells (1% DMSO and 25 nM CA200645); compounds at 10 µM; […]; mean ± SD, three experiments in duplicate
With `O=c1c(O)c(-c2ccc(O)c(O)c2)oc2cc(O)cc(O)c12` [Quercetin dihydrate] the “% 25 nM CA200645 binding” value was 25.2 ± 6.9%.

Same assay, conditions: % of control wells (1% DMSO and 25 nM CA200645); compounds at 10 µM; whole live cells expressing the A3AR; mean ± SD, three experiments in duplicate
For `Oc1ccc(/C=C/c2cc(O)cc(O)c2)cc1` [Resveratrol], the “% 25 nM CA200645 binding” value was 100.3 ± 16.3%.
For `Cc1nc2sccn2c(=O)c1CCN1CCC(=C(c2ccc(F)cc2)c2ccc(F)cc2)CC1` [Ritanserin], the “% 25 nM CA200645 binding” value was 79.4 ± 12.5%.
In the case of `COc1ccc(C2CNC(=O)C2)cc1OC1CCCC1` (stereo not drawn) [Rolipram], the “% 25 nM CA200645 binding” value is reported as 98.7 ± 10.9%.

Same assay, conditions: compounds tested at 10 µM; % of control wells (1% DMSO and 25 nM CA200645); whole live cells expressing the A3AR; mean ± SD, three experiments in duplicate
In the case of `CCC(=O)c1ccc2c(c1)N(CCCN(C)C)c1ccccc1S2` [Propionylpromazine hydrochloride], the “% 25 nM CA200645 binding” value is reported as 101.0 ± 0.8%.
In the case of `C[C@@H]1C(=O)NC2=Nc3cccc(Cl)c3CN21` [Quazinone], the “% 25 nM CA200645 binding” value is reported as 93.4 ± 5.4%.
